Assay [1] concerns the target T1, human GLP‐1R (Homo sapiens, UniProt P43220). The experiment in a line: cAMP accumulation, inhibition of GLP‐1‐mediated response (selectivity). To be noted: for inhibition at 1 µM: COS-7, read-out: Inhibition of GLP‐1‐mediated cAMP response at the human GLP‐1R. For orientation: Cyclic AMP is a second messenger, typically raised through Gs and lowered through Gi signalling.

The target of assay [2] is T2, human GLP‐2R (Homo sapiens, UniProt O95838).
T2 sequence (O95838 1-553): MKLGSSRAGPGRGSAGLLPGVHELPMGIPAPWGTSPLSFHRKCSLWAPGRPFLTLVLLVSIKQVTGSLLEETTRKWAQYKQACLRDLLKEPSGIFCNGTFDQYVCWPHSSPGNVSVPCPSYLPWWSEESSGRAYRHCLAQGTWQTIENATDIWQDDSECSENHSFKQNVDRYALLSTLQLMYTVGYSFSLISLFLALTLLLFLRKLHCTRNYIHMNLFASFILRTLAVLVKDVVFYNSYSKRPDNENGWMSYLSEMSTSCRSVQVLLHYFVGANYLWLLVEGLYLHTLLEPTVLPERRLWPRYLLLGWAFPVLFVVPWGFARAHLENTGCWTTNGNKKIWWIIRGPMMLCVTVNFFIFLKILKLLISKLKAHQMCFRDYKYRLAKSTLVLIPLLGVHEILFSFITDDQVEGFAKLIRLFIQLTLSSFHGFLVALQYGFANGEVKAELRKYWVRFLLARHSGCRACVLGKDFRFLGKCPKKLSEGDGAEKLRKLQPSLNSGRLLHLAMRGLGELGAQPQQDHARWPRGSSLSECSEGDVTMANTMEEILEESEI
In words: cAMP accumulation, inhibition of GLP‐2‐induced activation.

Assay [3] addresses T1, human GLP‐1R. The experiment in a line: cAMP accumulation, agonism (selectivity).
The target of assay [4] is T2, human GLP‐2R. The experiment in a line: Schild plot analysis of cAMP activation curve of GLP‐2. The assay is classed as cell-based. Also on record: host or cells: COS-7 (transient, calcium phosphate). The conditions noted are these: COS‐7 cells, n = 5 in duplicate, read-out: Ki from Schild plot (pA2) (converted). How it is done: Statistical significance was accepted at P < 0.05.
We used a Schild plot approach, where we examined their ability to right‐shift the cAMP activation curve of native GLP‐2 (Figure 4a–d). For GLP‐2(2‐33), GLP‐(3‐33) and GLP‐2(4‐33), all having intrinsic activity, the Schild plot analysis was based on an equieffective DR (the concentrations at 60% of Emax). For GLP‐2(3‐33)[D3A], with no intrinsic activity, the Schild plot analysis was conducted based on the shift in the EC50 values for GLP‐2 with and without GLP‐2(3‐33)[D3A] as previously described (Sparre‐Ulrich et al., [2017]).

Assay [5] concerns the target T2, human GLP‐2R. In words: cell-based. To be noted: SEM.
Method: After incubation, the cells were washed twice in 400 μl per well ice‐cold binding buffer and lysed using 500 μl per well of 200 mM NaOH with 1% SDS for 30 min. The samples were counted using the Wizard Gamma Counter (PerkinElmer, Waltham, MA).
The target of assay [6] is T2, human GLP‐2R. In words: cAMP accumulation, agonism (HitHunter cAMP assay). The conditions noted are these: for Emax: COS-7, read-out: cAMP activation Emax ± SEM.

Like-named read-outs stand apart in the source and are kept apart here. Peptide text beside a SMILES is read from it. * marks the point of attachment. C16 diacid = O=C(O)CCCCCCCCCCCCCCC(=O)*

T1 sequence (P43220 24-463): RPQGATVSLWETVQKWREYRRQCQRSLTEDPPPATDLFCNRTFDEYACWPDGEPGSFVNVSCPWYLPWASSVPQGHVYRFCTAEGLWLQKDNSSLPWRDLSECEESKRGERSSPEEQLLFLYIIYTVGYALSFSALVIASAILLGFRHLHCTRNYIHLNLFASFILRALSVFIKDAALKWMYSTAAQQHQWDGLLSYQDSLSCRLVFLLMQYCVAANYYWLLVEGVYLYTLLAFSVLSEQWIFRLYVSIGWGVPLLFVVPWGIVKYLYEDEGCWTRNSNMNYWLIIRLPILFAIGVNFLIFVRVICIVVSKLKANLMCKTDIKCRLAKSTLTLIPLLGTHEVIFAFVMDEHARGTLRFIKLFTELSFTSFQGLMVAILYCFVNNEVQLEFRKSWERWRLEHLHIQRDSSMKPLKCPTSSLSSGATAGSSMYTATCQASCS

The term IC50 denotes the concentration at which inhibition is half-maximal. For orientation: inhibition means the relative decrease from the control value, in per cent. By EC50 is commonly meant the concentration giving half of the maximal effect. With `CC[C@H](C)[C@H](NC(=O)[C@H](Cc1ccccc1)NC(=O)[C@H](CC(=O)O)NC(=O)[C@H](CCCNC(=N)N)NC(=O)[C@H](C)NC(=O)[C@H](C)NC(=O)[C@H](CC(C)C)NC(=O)[C@H](CC(N)=O)NC(=O)[C@H](CC(=O)O)NC(=O)[C@H](CC(C)C)NC(=O)[C@@H](NC(=O)[C@@H](NC(=O)[C@H](CC(N)=O)NC(=O)[C@H](CCSC)NC(=O)[C@H](CCC(=O)O)NC(=O)[C@H](CC(=O)O)NC(=O)[C@H](CO)NC(=O)[C@H](Cc1ccccc1)NC(=O)[C@H](CO)NC(=O)CNC(=O)CCCCCCCCCCCCCCC(=O)O)[C@@H](C)O)[C@@H](C)CC)C(=O)N[C@@H](CC(N)=O)C(=O)N[C@@H](Cc1c[nH]c2ccccc12)C(=O)N[C@@H](CC(C)C)C(=O)N[C@H](C(=O)N[C@@H](CCC(N)=O)C(=O)N[C@H](C(=O)N[C@@H](CCCCN)C(=O)N[C@H](C(=O)N[C@H](C(=O)N[C@@H](CC(=O)O)C(=O)O)[C@@H](C)O)[C@@H](C)CC)[C@@H](C)O)[C@@H](C)CC` [GLP‐2(4‐33)(C16‐diacid/4)] ({C16 diacid}-GSFSDEMNTILDNLAARDFINWLIQTKITD-OH), on human GLP‐1R [1], the IC50 amounted to 79 nM and the inhibition at 1 µM was 41%. The same molecule came in with an IC50 at human GLP‐2R [2] of 11.7 nM. For the same molecule, the “Inhibition of GLP‐2‐induced cAMP at the human GLP‐2R” value at human GLP‐2R [2] (at 1 μM peptide (highest tested concentration), COS‐7 cells) is 95%. The same molecule registered a 50% effective concentration (EC50) on human GLP‐1R [3] of 2.5 nM. Further, the “Efficacy of GLP‐1R activation” value at human GLP‐1R [3] (COS‐7 cells, human GLP‐1R, cAMP, 1 μM stimulation, n = 3 in duplicate) amounted to 16%.

One may read the Ki as the dissociation constant of the complex between target and ligand, obtained from inhibition or displacement. A word on the Emax: it is the size of the effect at its maximum, as opposed to the concentration needed. On to `CC[C@H](C)[C@H](NC(=O)[C@H](Cc1ccccc1)NC(=O)[C@H](CC(=O)O)NC(=O)[C@H](CCCNC(=N)N)NC(=O)[C@H](C)NC(=O)[C@H](C)NC(=O)[C@H](CC(C)C)NC(=O)[C@H](CC(N)=O)NC(=O)[C@H](CC(=O)O)NC(=O)[C@H](CC(C)C)NC(=O)[C@@H](NC(=O)[C@@H](NC(=O)[C@H](CC(N)=O)NC(=O)[C@H](CCSC)NC(=O)[C@H](CCC(=O)O)NC(=O)[C@H](CC(=O)O)NC(=O)[C@H](CO)NC(=O)[C@H](Cc1ccccc1)NC(=O)[C@H](CO)NC(=O)CNC(=O)[C@H](CC(=O)O)NC(=O)[C@H](C)N)[C@@H](C)O)[C@@H](C)CC)C(=O)N[C@@H](CC(N)=O)C(=O)N[C@@H](Cc1c[nH]c2ccccc12)C(=O)N[C@@H](CC(C)C)C(=O)N[C@H](C(=O)N[C@@H](CCC(N)=O)C(=O)N[C@H](C(=O)N[C@@H](CCCCN)C(=O)N[C@H](C(=O)N[C@H](C(=O)N[C@@H](CC(=O)O)C(=O)O)[C@@H](C)O)[C@@H](C)CC)[C@@H](C)O)[C@@H](C)CC` [GLP‐2(2‐33)] (H-ADGSFSDEMNTILDNLAARDFINWLIQTKITD-OH), for which, on human GLP‐1R [1], the inhibition at 1 µM is 30 to 38%. At human GLP‐2R [2], the IC50 stood at 174 nM. The Ki at human GLP‐2R [4] was 40 nM. At human GLP‐2R [5], this molecule showed an IC50 of 7.94 nM. Moreover, on human GLP‐2R [6] (SEM), the Emax was 20 ± 3.2% and the concentration giving a half-maximal response (EC50) was 7.94 nM.

On to `CC[C@H](C)[C@H](NC(=O)[C@H](Cc1ccccc1)NC(=O)[C@H](CC(=O)O)NC(=O)[C@H](CCCNC(=N)N)NC(=O)[C@H](C)NC(=O)[C@H](C)NC(=O)[C@H](CC(C)C)NC(=O)[C@H](CC(N)=O)NC(=O)[C@H](CC(=O)O)NC(=O)[C@H](CC(C)C)NC(=O)[C@@H](NC(=O)[C@@H](NC(=O)[C@H](CC(N)=O)NC(=O)[C@H](CCSC)NC(=O)[C@H](CCC(=O)O)NC(=O)[C@H](CC(=O)O)NC(=O)[C@H](CO)NC(=O)[C@H](Cc1ccccc1)NC(=O)[C@H](CO)NC(=O)CN)[C@@H](C)O)[C@@H](C)CC)C(=O)N[C@@H](CC(N)=O)C(=O)N[C@@H](Cc1c[nH]c2ccccc12)C(=O)N[C@@H](CC(C)C)C(=O)N[C@H](C(=O)N[C@@H](CCC(N)=O)C(=O)N[C@H](C(=O)N[C@@H](CCCCN)C(=O)N[C@H](C(=O)N[C@H](C(=O)N[C@@H](CC(=O)O)C(=O)O)[C@@H](C)O)[C@@H](C)CC)[C@@H](C)O)[C@@H](C)CC` [GLP‐2(4‐33)] (H-GSFSDEMNTILDNLAARDFINWLIQTKITD-OH), for which the IC50 against human GLP‐2R [2] (SEM) was 79.4 nM; against human GLP‐2R [5] it was 6.31 nM. For the same molecule, the inhibition constant (Ki) at human GLP‐2R [4] was 6.3 nM. The midpoint of the response on human GLP‐2R [6], the EC50, lay at 158 nM. Also, the maximal response (Emax) at human GLP‐2R [6] (SEM) came out at 17 ± 2.6%.

These data come from PMC9541843, “N‐terminal alterations turn the gut hormone GLP‐2 into an antagonist with gradual loss of GLP‐2 receptor selectivity towards more GLP‐1 receptor interaction” (British Journal of Pharmacology, 2022).
